# Measured values published in patent publication US20220370451A1, “INHIBITORS OF HUMAN IMMUNODEFICIENCY VIRUS REPLICATION” (VIIV HEALTHCARE UK ( No. 5) LIMITED, priority 2019, published 2022).
# Key:
# [1] = Compound cytotoxicity, XTT-based colorimetric assay; type: cell-based; conditions: human; uninfected MT2 cells, day 4, XTT
# Experimental: Compound cytotoxicity and the corresponding CC50 values were determined using the same protocol as described in the antiviral assay except that uninfected cells were used. Cytotoxicity was assessed on day 4 in uninfected MT2 cells by using a XTT (2,3-bis[2-Methoxy-4-nitro-5-sulfophenyl]-2H-tetrazolium-5-carboxyanilide inner salt)-based colorimetric assay (Sigma-Aldrich, St Louis, Mo.).
# [2] = tested on: recombinant NL4-3 virus; assay: HIV cell culture assay (luciferase reporter antiviral activity); type: cell-based; conditions: Human immunodeficiency virus 1, NL43, MT2
# Experimental: HIV cell culture assay—MT=2 cells, 293T cells and the proviral DNA clone of NL4-3 virus were obtained from the NIH AIDS Research and Reference Reagent Program. MT=2 cells were propagated in RPMI 1640 media supplemented with 10% heat inactivated fetal bovine serum (FBS), […] penicillin G and up to 100 units/mL streptomycin. The 293T cells were propagated in DMEM media supplemented with 10% heat inactivated FBS, […] penicillin G and […] streptomycin. A recombinant NL4-3 proviral clone, in which a section of the nef gene was replaced with the Renilla luciferase gene, was used to make the reference virus used in these studies. The recombinant virus was prepared through transfection of the recombinant NL4-3 proviral clone into 293T cells using Transit-293 Transfection Reagent from Mirus Bio LLC (Madison, Wis.). Supernatent was harvested after 2-3 days and the amount of virus present was titered in MT=2 cells using luciferase enzyme activity as a marker by measuring luciferase enzyme activity. Luciferase was quantitated using the EnduRen Live Cell Substrate from Promega (Madison, Wis.). Antiviral activities of compounds toward the recombinant virus were quantified by measuring luciferase activity in MT=2 cells infected for 4-5 days with the recombinant virus in the presence of serial dilutions of the compound.
# The 50% effective concentration (EC50) was calculated by using the exponential form of the median effect equation where (Fa)=1/[1+(ED50/drug conc.)m] (Johnson V A, Byington RT. Infectivity Assay. In Techniques in HIV Research. ed. Aldovini A, Walker B D. 71-76. New York: Stockton Press.1990). The 50% inhibitory concentration (EC50) was calculated by using the exponential form of the median effect equation where percent inhibition=1/[1+(EC50/drug concentration)m], where m is a parameter that reflects the slope of the concentration-response curve.
smiles,measurement,setting,value
"Cn1nc(NS(C)(=O)=O)c2c(Cl)ccc(-n3c([C@H](Cc4cc(F)cc(F)c4)NC(=O)Cn4nc(C5CC5)cc4C(F)F)nc4cc(-c5ccccc5F)ccc4c3=O)c21 (atropisomer, axis not shown; (P)) [Example 29, (S)-N-(1-((3P)-3-(4-chloro-1-methyl-3-(methylsulfonamido)-1H-indazol-7-yl)-7-(2-fluorophenyl)-4-oxo-3,4-dihydroquinazolin-2-yl)-2-(3,5-difluorophenyl)ethyl)-2-(3-cyclopropyl-5-(difluoromethyl)-1H-pyrazol-1-yl)acetamide]",CC50 at 4 days,[1],> 500 nM
same,EC50,[2],3.1 nM
"Cc1nccnc1-c1ccc2c(=O)n(-c3ccc(C)c4c(NS(C)(=O)=O)nn(CC(F)F)c34)c([C@H](Cc3cc(F)cc(F)c3)NC(=O)Cn3nc(C(F)F)c4c3C(F)(F)[C@@H]3C[C@H]43)nc2c1 (atropisomer, axis not shown; (P)) [Example 32, N-((S)-1-(3-(1-(2,2-difluoroethyl)-4-methyl-3-(methylsulfonamido)-1H-indazol-7-yl)-(3P)-7-(3-methylpyrazin-2-yl)-4-oxo-3,4-dihydroquinazolin-2-yl)-2-(3,5-difluorophenyl)ethyl)-2-((3bS,4aR)-3-(difluoromethyl)-5,5-difluoro-3b,4,4a,5-tetrahydro-1H-cyclopropa[3,4]cyclopenta[1,2-c]pyrazol-1-yl)acetamide]",CC50 at 4 days,[1],> 500 nM
same,EC50,[2],0.063 nM
"Cc1cc(C)nc(-c2ccc3c(=O)n(-c4ccc(Cl)c5c(NS(C)(=O)=O)nn(C)c45)c([C@H](Cc4cc(F)cc(F)c4)NC(=O)Cn4nc(C5CC5)c5ccccc54)nc3c2)n1 (atropisomer, axis not shown; (P)) [Example 4, (S)-N-(1-((3P)-3-(4-chloro-1-methyl-3-(methylsulfonamido)-1H-indazol-7-yl)-7-(4,6-dimethylpyrimidin-2-yl)-4-oxo-3,4-dihydroquinazolin-2-yl)-2-(3,5-difluorophenyl)ethyl)-2-(3-cyclopropyl-1H-indazol-1-yl)acetamide]",CC50 at 4 days,[1],> 500 nM
same,EC50,[2],0.91 nM
"CC(C)[C@H](C(=O)N[C@@H](Cc1cc(F)cc(F)c1)c1nc2nc(-c3ccccc3F)ccc2c(=O)n1-c1ccc(Cl)c2c(NS(C)(=O)=O)nn(CC(F)(F)F)c12)n1ccc(C2CC2)n1 (atropisomer, axis not shown; (P)) [Example 26, N-((S)-1-((3P)-3-(4-chloro-3-(methylsulfonamido)-1-(2,2,2-trifluoroethyl)-1H-indazol-7-yl)-7-(2-fluorophenyl)-4-oxo-3,4-dihydropyrido[2,3-d]pyrimidin-2-yl)-2-(3,5-difluorophenyl)ethyl)-2-(3-cyclopropyl-1H-pyrazol-1-yl)-3-methylbutanamide]",CC50 at 4 days,[1],> 500 nM
same,EC50,[2],1.9 nM
"Cc1nccnc1-c1ccc2c(=O)n(-c3ccc(Cl)c4c(NS(=O)(=O)C5CC5)nn(CC(F)F)c34)c([C@H](Cc3cc(F)cc(F)c3)NC(=O)Cn3nc(C(F)F)cc3C3CC3)nc2c1 (atropisomer, axis not shown; (P)) [Example 35, (S)-N-(1-((3P)-3-(4-chloro-3-(cyclopropanesulfonamido)-1-(2,2-difluoroethyl)-1H-indazol-7-yl)-7-(3-methylpyrazin-2-yl)-4-oxo-3,4-dihydroquinazolin-2-yl)-2-(3,5-difluorophenyl)ethyl)-2-(5-cyclopropyl-3-(difluoromethyl)-1H-pyrazol-1-yl)acetamide]",CC50 at 4 days,[1],> 500 nM
same,EC50,[2],0.36 nM
"O=C(Cn1nc(C2CC2)c2ccccc21)N[C@@H](Cc1cc(F)cc(F)c1)c1nc2nc(-c3ccccc3F)ccc2c(=O)n1-c1ccc(Cl)c2c(NS(=O)(=O)C3CC3)nn(CC(F)F)c12 (atropisomer, axis not shown; (P)) [Example 13, (S)-N-(1-((3P)-3-(4-chloro-3-(cyclopropanesulfonamido)-1-(2,2-difluoroethyl)-1H-indazol-7-yl)-7-(2-fluorophenyl)-4-oxo-3,4-dihydropyrido[2,3-d]pyrimidin-2-yl)-2-(3,5-difluorophenyl)ethyl)-2-(3-cyclopropyl-1H-indazol-1-yl)acetamide]",CC50 at 4 days,[1],> 500 nM
same,EC50,[2],0.47 nM
"CC(C)(C(=O)N[C@@H](Cc1cc(F)cc(F)c1)c1nc2nc(-c3ccccc3F)ccc2c(=O)n1-c1ccc(Cl)c2c(NS(C)(=O)=O)nn(CC(F)(F)F)c12)n1ccc(C2CC2)n1 (atropisomer, axis not shown; (P)) [Example 22, (S)-N-(1-((3P)-3-(4-chloro-3-(methylsulfonamido)-1-(2,2,2-trifluoroethyl)-1H-indazol-7-yl)-7-(2-fluorophenyl)-4-oxo-3,4-dihydropyrido[2,3-d]pyrimidin-2-yl)-2-(3,5-difluorophenyl)ethyl)-2-(3-cyclopropyl-1H-pyrazol-1-yl)-2-methylpropanamide]",CC50 at 4 days,[1],> 500 nM
same,EC50,[2],0.8 nM
"Cc1nccnc1-c1ccc2c(=O)n(-c3ccc(Cl)c4c(NS(C)(=O)=O)nn(C)c34)c([C@H](Cc3cc(F)cc(F)c3)NC(=O)Cn3ccc(C(C)(C)C)n3)nc2c1 (atropisomer, axis not shown; (P)) [Example 5, (S)-2-(3-(tert-butyl)-1H-pyrazol-1-yl)-N-(1-((3P)-3-(4-chloro-1-methyl-3-(methylsulfonamido)-1H-indazol-7-yl)-7-(3-methylpyrazin-2-yl)-4-oxo-3,4-dihydroquinazolin-2-yl)-2-(3,5-difluorophenyl)ethyl)acetamide]",CC50 at 4 days,[1],> 500 nM
same,EC50,[2],0.65 nM
"Cc1nccnc1-c1ccc2c(=O)n(-c3ccc(Cl)c4c(NS(C)(=O)=O)nn(C)c34)c([C@H](Cc3cc(F)cc(F)c3)NC(=O)Cn3nc(C4CC4)c4ccccc43)nc2c1 (atropisomer, axis not shown; (P)) [Example 2, (S)-N-(1-((3P)-3-(4-chloro-1-methyl-3-(methylsulfonamido)-1H-indazol-7-yl)-7-(3-methylpyrazin-2-yl)-4-oxo-3,4-dihydroquinazolin-2-yl)-2-(3,5-difluorophenyl)ethyl)-2-(3-cyclopropyl-1H-indazol-1-yl)acetamide]",CC50 at 4 days,[1],> 500 nM
same,EC50,[2],0.21 nM
"Cc1nccnc1-c1ccc2c(=O)n(-c3ccc(Cl)c4c(NS(C)(=O)=O)nn(C)c34)c([C@H](Cc3cc(F)cc(F)c3)NC(=O)Cn3nc(C(F)F)c4ccccc43)nc2c1 (atropisomer, axis not shown; (P)) [Example 7, (S)-N-(1-((3P)-3-(4-chloro-1-methyl-3-(methylsulfonamido)-1H-indazol-7-yl)-7-(3-methylpyrazin-2-yl)-4-oxo-3,4-dihydroquinazolin-2-yl)-2-(3,5-difluorophenyl)ethyl)-2-(3-(difluoromethyl)-1H-indazol-1-yl)acetamide]",CC50 at 4 days,[1],> 500 nM
same,EC50,[2],0.38 nM
"Cc1nccnc1-c1ccc2c(=O)n(-c3ccc(Cl)c4c(NS(C)(=O)=O)nn(C)c34)c([C@H](Cc3cc(F)cc(F)c3)NC(=O)Cn3nc(C(F)(F)F)cc3C(F)(F)F)nc2c1 (atropisomer, axis not shown; (P)) [Example 1, (S)-2-(3,5-bis(trifluoromethyl)-1H-pyrazol-1-yl)-N-(1-((3P)-3-(4-chloro-1-methyl-3-(methylsulfonamido)-1H-indazol-7-yl)-7-(3-methylpyrazin-2-yl)-4-oxo-3,4-dihydroquinazolin-2-yl)-2-(3,5-difluorophenyl)ethyl)acetamide]",CC50 at 4 days,[1],> 500 nM
same,EC50,[2],1.9 nM
"O=C(Cn1nc(C(F)F)cc1C1CC1)N[C@@H](Cc1cc(F)cc(F)c1)c1nc2cc(-c3ncccn3)ccc2c(=O)n1-c1ccc(Cl)c2c(NS(=O)(=O)C3CC3)nn(CC(F)F)c12 (atropisomer, axis not shown; (P)) [Example 34, (S)-N-(1-((3P)-3-(4-chloro-3-(cyclopropanesulfonamido)-1-(2,2-difluoroethyl)-1H-indazol-7-yl)-4-oxo-7-(pyrimidin-2-yl)-3,4-dihydroquinazolin-2-yl)-2-(3,5-difluorophenyl)ethyl)-2-(5-cyclopropyl-3-(difluoromethyl)-1H-pyrazol-1-yl)acetamide]",CC50 at 4 days,[1],> 500 nM
same,EC50,[2],0.4 nM
"CC(C)[C@H](C(=O)N[C@@H](Cc1cc(F)cc(F)c1)c1nc2nc(-c3ccccc3F)ccc2c(=O)n1-c1ccc(Cl)c2c(NS(=O)(=O)C3CC3)nn(CC(F)F)c12)n1ccc(C2CC2)n1 (atropisomer, axis not shown; (P)) [Example 24, N-((S)-1-((3P)-3-(4-chloro-3-(cyclopropanesulfonamido)-1-(2,2-difluoroethyl)-1H-indazol-7-yl)-7-(2-fluorophenyl)-4-oxo-3,4-dihydropyrido[2,3-d]pyrimidin-2-yl)-2-(3,5-difluorophenyl)ethyl)-2-(3-cyclopropyl-1H-pyrazol-1-yl)-3-methylbutanamide]",CC50 at 4 days,[1],> 500 nM
same,EC50,[2],3.9 nM
